Reference: PMC10418725, “Trypsin from Pyloric Caeca of Asian Seabass: Purification, Characterization, and Its Use in the Hydrolysis of Acid-Soluble Collagen” (Foods, 2023)

Test system: purified trypsin (PT) from the pyloric caeca of Asian seabass
Assay: 4-nitroaniline release, A410; Lineweaver-Burk
Format: biochemical, Lates calcarifer
Conditions: 30 °C, optimal pH (8.5) per Table 3 footnote; free enzyme; b65 text prints 0.0078 (no unit)

Km: 78 µM
SMILES: NC(N)=NCCCC(NC(=O)c1ccccc1)C(=O)Nc1ccc([N+](=O)[O-])cc1 (stereo not shown) [BAPNA]
